Results from paper PMC11040352, “CD38‐Specific Gallium‐68 Labeled Peptide Radiotracer Enables Pharmacodynamic Monitoring in Multiple Myeloma with PET” (Advanced Science, 2024).

What was measured:
[1] = target: T1, recombinant human CD38 protein (Homo sapiens, UniProt P28907); experiment: Affinity measurement by surface plasmon resonance (SPR), human CD38; format: binding
T1 construct: purchased R&D systems 2404-AC
Experimental: The affinity of AJ206 for hCD38 and mCD38 recombinant proteins were evaluated by SPR. The experiments were conducted using a Biacore T200 instrument with a CM5 chip at 25 °C. The ligands used were His‐Tagged human CD38 (R&D systems, catalog # 2404‐AC, 43 kDa, 0.5 mg mL^−1 stock concentration) and mouse CD38 proteins (R&D systems, catalog # 4947‐AC, 40 kDa, 1.81 mg mL^−1 stock concentration), which were immobilized onto the CM5 chip. AJ206 (2089.2 Da, 10 × 10^−3 M stock concentration) was used as the analyte, which flowed over the ligand immobilized surface. FC2 was used as the experimental flow cell, while FC1 served as the reference. Anti‐His antibody (1 mg mL^−1 stock concentration) was immobilized on both FC1 and FC2 using standard amine coupling chemistry. The immobilization running buffer used was PBS‐P (20 × 10^−3 M phosphate buffer pH 7.4, 137 × 10^−3 M NaCl, 2.7 × 10^−3 M KCl, 0.05% v/v surfactant P20). Human CD38 was captured onto FC2 at a level of ≈860 RU, with a 1:20 dilution and 25 µg mL^−1 diluted concentration in PBS‐P. Mouse CD38 was captured onto FC4 at a level of 1360 RU, with a 1:50 dilution and 36.2 µg mL^−1 diluted concentration in PBS‐P. The theoretical R max values were calculated based on the captured response values and are presented in Table 2 , assuming a 1:1 interaction mechanism. […]

[2] = tested on: MM cell lines (U266, RPMI8226, MM1S, and MOLP8); experiment: ATRA treatment, in vitro uptake of [^68Ga]Ga‐AJ206; format: cell-based, human; details: ATRA treated cells compared to control treatment
Experimental: In vitro binding assays were conducted to determine the binding of [^68Ga]Ga‐AJ206 to U266, RPMI8226, MM1S, and MOLP8 cells. Approximately 1 µCi of [^68Ga]Ga‐AJ206 was incubated with 1 × 10^6 cells in 100 µL of culture media for 60 min at 4 °C. After incubation, cells were washed three times with ice‐cold PBS containing 0.1% tween‐20 and counted on an automated gamma counter (1282 Compugamma CS, Pharmacia/LKB Nuclear, Inc., Gaithersburg, MD). […] All cellular uptake studies were performed in quadruplicate for each cell line and repeated three times.
To evaluate the pharmacodynamic effects of ATRA therapy on MM cells, U266, RPMI8226, MM1S, and MOLP8 cells were seeded at a concentration of 0.5 million in 500 µL per well in triplicates in a six‐well plate. A 200 × 10^−9 M working solution of all‐trans retinoic acid (ATRA, Sigma‐Aldrich #554720) was prepared by diluting in culture media. Next, 500 µL of the working solution was added to each well, and the cells were incubated for 48 h at 37 °C in a 5% CO2 atmosphere. After incubation, cells were transferred to FACS tubes, medium was removed by centrifugation, and the cells were resuspended in FACS buffer for flow cytometry and in vitro binding studies, following the same protocol as previously described.

[3] = tested on: MM cell lines (U266, RPMI8226, MM1S, and MOLP8); experiment: ATRA treatment, flow cytometry of CD38 surface expression; format: cell-based, human; details: four MM cell lines, ATRA 48 h
Experimental: To evaluate CD38 surface expression, cells (1 × 10^6) were stained with PE‐labelled anti‐human CD38 monoclonal antibody (clone HB‐7, BioLegend Cat # 356604) in FACS buffer (0.5% FBS with 2 mM EDTA) for 30 min on ice. After washing and resuspending in FACS buffer, data were acquired on a BD Accuri C6 plus flow cytometer and analyzed using FlowJo software. Receptor density measurements were performed using Quantibrite Beads (BD Biosciences, cat #340495), which contain four levels of phycoerythrin (PE) per bead. Gates were drawn on low, medium low, medium high, and high PE binding beads, and the geometric mean from these populations was correlated with the lot‐specific PE molecule/bead on a logarithmic scale. This correlation was used to translate cell population geometric mean to receptor/cell for the respective cell type. To evaluate the pharmacodynamic effects of ATRA therapy on MM cells, U266, RPMI8226, MM1S, and MOLP8 cells were seeded at a concentration of 0.5 million in 500 µL per well in triplicates in a six‐well plate. A 200 × 10^−9 M working solution of all‐trans retinoic acid (ATRA, Sigma‐Aldrich #554720) was prepared by diluting in culture media. Next, 500 µL of the working solution was added to each well, and the cells were incubated for 48 h at 37 °C in a 5% CO2 atmosphere. […]

PDX tumors = experiment: PET imaging of patient‐derived xenografts (PDXs), incl. before and after ATRA; format: in vivo, NSG mice; details: PDX mice, oral ATRA 500 µg per day for 3 d, compared to pre‐treatment
Experimental: To establish PDX models, immune‐deficient NSG male mice (NOD/Shi‐scid IL‐2rgnull), aged 6–8 weeks, were employed after being irradiated at an absorbed dose of 200 cGy. PCL cells, sourced from two patients and anonymized, were obtained from Dr. Gocke's laboratory. Under sterile conditions, the cells were thawed and treated with DNAse at a concentration of 20 µg mL^−1. After cell counting, 30 000 cells were subjected to flow cytometry analysis to assess CD38 expression. The remaining cells were subcutaneously inoculated at a concentration of 5 × 10^6 cells in 100 µL of a solution comprising 60% Matrigel Basement Matrix (Corning 356230) diluted with HBSS. The animals were included in the experiments once the PDX volumes reached tumor volumes of 100–200 mm^3.
Mice bearing flank tumors and disseminated disease were injected intravenously with [^68Ga]Ga‐AJ206 and PET images were acquired 60 min after injection of the radiotracer. […] PET images were quantified by drawing ROI on tissues using Amide 1.0.6 and reported as %ID/cc.
To assess the pharmacodynamics of ATRA‐induced CD38 expression in vivo, mice bearing PDX tumors (n = 6) were subjected to image using [^68Ga]Ga‐AJ206 to quantify CD38 expression prior to treatment. […] All images were analyzed using AMIDE software with standard ROI analysis techniques.

T1 sequence (P28907 whole entry): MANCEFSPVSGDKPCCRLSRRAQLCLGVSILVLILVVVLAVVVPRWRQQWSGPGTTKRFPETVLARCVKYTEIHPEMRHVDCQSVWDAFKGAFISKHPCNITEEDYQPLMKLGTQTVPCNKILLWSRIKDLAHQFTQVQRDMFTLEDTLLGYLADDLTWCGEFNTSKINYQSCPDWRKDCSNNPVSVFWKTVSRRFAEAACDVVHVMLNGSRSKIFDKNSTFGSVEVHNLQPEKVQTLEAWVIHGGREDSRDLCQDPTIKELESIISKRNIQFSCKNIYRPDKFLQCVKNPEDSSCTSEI

| SMILES | Kd ([1]; hCD38, read-out: dissociation constant (K D)) [nM] | koff ([1]; recombinant human CD38, mean ± SEM (n = 2), read-out: Koff (1/s) x10^-4) [s⁻¹] | change of [^68Ga]Ga‐AJ206 radioactivity uptake in treated cells [2] | change of CD38 expression [3] | change of [^68Ga]Ga‐AJ206 radioactivity uptake in tumors (PET) (PDX tumors) |
| --- | --- | --- | --- | --- | --- |
| CC[C@H](C)[C@@H]1NC(=O)[C@@H]2CCCN2C(=O)[C@H](Cc2ccccc2)NC(=O)[C@H](CC(=O)O)NC(=O)[C@H](C)NC(=O)[C@@H]2CSCc3cc(cc(c3)CSC[C@H](NC(=O)[C@H](C)NC(=O)CCOCCOCCOCCNC(=O)CN3CCN(CC(=O)O)CCN(CC(=O)O)CC3)C(=O)N[C@@H](C(C)C)C(=O)N3CCC[C@H]3C(=O)N2)CSC[C@@H](C(N)=O)NC(=O)[C@H](Cc2ccc(O)cc2)NC(=O)[C@H](Cc2c[nH]c3ccccc23)NC1=O [AJ206] | 19.1 ± 0.99 | 0.0006 ± 0.000121 |  |  |  |
| CC1=C(/C=C/C(C)=C/C=C/C(C)=C/C(=O)O)C(C)(C)CCC1 [ATRA, all‐trans retinoic acid] |  |  | significant increase | increased CD38 expression | significant increase |
